Results as given in ChEMBL document CHEMBL5674860, “Optimized Dual-Glo Assay to identify co-culture-induced drug vulnerabilities in 3D CRC models” (2024).
Several values for one entry are separate records, joined by “and”; a condition that tells them apart may be missing. Equal entries are not always repeated. Square brackets hold non-standard residues; d marks the D form. Peptide text beside a SMILES is read from it. Arg(Me) = CNC(=N)NCCC[C@H](N)C(=O)O; d4Pal = N[C@H](Cc1ccncc1)C(=O)O; azaGly = NNC(=O)O

How the values were obtained:
Format in all cases: functional, Homo sapiens
Parameters in all cases: dose or concentration left out as unconfirmed
Colon cancer organoid [1] = experiment: Optimized Dual-Glo assay to identify co-culture induced drug vulnerabilities using donated chemical probes and chemogenomics kinase set in O06 CRC organoid and F06 CAF mono and co-culture. […] Cell viability is reported both mono and co-culture models.
Colon cancer organoid [2] = experiment: Optimized Dual-Glo assay to identify co-culture induced drug vulnerabilities using donated chemical probes and chemogenomics kinase set in O14 CRC organoid and F14 CAF mono and co-culture. […] Cell viability is reported both mono and co-culture models.
Colon cancer organoid [3] = experiment: Optimized Dual-Glo assay to identify co-culture induced drug vulnerabilities using donated chemical probes and chemogenomics kinase set in O20 CRC organoid and F20 CAF mono and co-culture. […] Cell viability is reported both mono and co-culture models.
[4] = Culture type Co-Culture, Transduced with Lucferase2-P2A-EGFP lentivirus
[5] = Culture type Co-Culture, Transduced with Renilla-dsRed lentivirus
[6] = Culture type Mono-Culture, Transduced with Lucferase2-P2A-EGFP lentivirus
[7] = Culture type Mono-Culture, Transduced with Renilla-dsRed lentivirus

Row | SMILES | Cell Viability (Colon cancer organoid [1]; [4]) | Cell Viability (Colon cancer organoid [1]; [5]) | Cell Viability (Colon cancer organoid [1]; [6]) | Cell Viability (Colon cancer organoid [1]; [7]) | Cell Viability (Colon cancer organoid [2]; [4]) | Cell Viability (Colon cancer organoid [2]; [5]) | Cell Viability (Colon cancer organoid [2]; [6]) | Cell Viability (Colon cancer organoid [2]; [7]) | Cell Viability (Colon cancer organoid [3]; [4]) | Cell Viability (Colon cancer organoid [3]; [5]) | Cell Viability (Colon cancer organoid [3]; [6]) | Cell Viability (Colon cancer organoid [3]; [7])
1 | CCCCN(Cc1ccccc1)C(=O)c1ccc(S(=O)(=O)Nc2ccccc2)cc1 | 64.4698% | 76.2121% | 99.0346% | 112.912% | 108.863% | 102.946% | 107.066% | 103.133% | 74.981% | 116.955% | 117.076% | 107.638%
2 | CCS(=O)(=O)c1cc2cc(C[C@](O)(CC(C)(C)c3ccc(F)cc3C(N)=O)C(F)(F)F)[nH]c2cn1 [BI 653048] | 136.436% | 297.33% | 97.0766% | 179.661% | 98.1614% | 169.499% | 94.8893% | 163.254% | 85.6205% | 287.465% | 124.389% | 135.577%
3 | N#CC1(c2ccccn2)CCN(Cc2cc(C(=O)O)c(=O)n3ccccc23)CC1 [MSD-M1PAM] | 12.088% | 188.309% | 35.5128% | 99.638% | 126.16% | 122.221% | 72.0486% | 98.779% | 53.1969% | 117.537% | 81.9362% | 89.7444%
4 | CNC(=N)NCCC[C@H](NC(=O)[C@H](CC(C)C)NC(=O)NNC(=O)[C@H](Cc1ccccc1)NC(=O)[C@H](CO)NC(=O)[C@H](CC(N)=O)NC(=O)[C@@H](Cc1ccncc1)NC(=O)[C@H](N)Cc1ccc(O)cc1)C(=O)N[C@@H](Cc1ccccc1)C(N)=O [KISS1-305] (H-[dY][d4Pal]NSF[azaGly]L[Arg(Me)]F-NH2) | 104.031% | 118.904% | 114.891% | 119.718% | 143.349% | 104.877% | 85.2761% | 111.321% | 118.72% | 125.679% | 103.004% | 99.3377%
5 | CCCS(=O)(=O)c1nc(NC2CC2)cc(-c2ccc3c(ccn3C3CC(C)(C)NC(C)(C)C3)c2)n1 | 80.022% and 93.4216% | 88.9327% and 142.491% | 57.3495% and 53.1993% | 66.0436% and 80.8259% | 89.4811% and 97.6343% | 131.118% and 106.572% | 78.7545% and 88.3769% | 100.347% and 100.989% | 90.8821% and 132.572% | 94.2313% and 119.463% | 112.848% and 138.911% | 68.5534% and 89.7285%
6 | CC(=O)C1=C(C)N(c2cccc(C(F)(F)F)c2)C(=O)N[C@H]1c1ccc(C#N)nc1 [BAY-677] | 113.366% | 134.225% | 107.227% | 105.031% | 86.1981% | 131.912% | 107.006% | 91.8517% | 134.265% | 107.791% | 113.459% | 115.06%
7 | N#CN1CC[C@H](C(=O)Nc2nc3c(s2)CN(C(=O)CN=[N+]=[N-])CC3)C1 [8RK64] | 104.648% | 104.354% | 102.804% | 85.3904% | 91.8118% | 102.385% | 81.5329% | 88.8457% | 67.2995% | 105.29% | 57.1131% | 75.6901%
8 | Cn1nc(C(=O)NCc2ccc(C(=O)O)cc2)cc1-c1ccc2[nH]ccc2c1 [BI 4395] | 92.221% | 114.828% | 85.3335% | 79.5775% | 58.8492% | 93.1183% | 115.617% | 91.6294% | 100.657% | 92.7545% | 82.9051% | 93.5086%
9 | O=C(O)c1ccc(-c2coc3ncc(-c4ccccc4)cc23)cc1Cl | 226.279% | 119.386% | 202.946% | 112.766% | 199.753% | 90.4064% | 200.801% | 87.3818% | 189.357% | 126.188% | 202.493% | 116.18%
10 | COCC(=O)NC/C=C/c1ccc2ncnc(Nc3ccc(Oc4ccc(C)nc4)c(C)c3)c2c1 [CP-724714] | 64.178% | 58.1065% | 46.8341% | 91.801% | 60.8642% | 107.55% | 48.0446% | 87.9569% | 97.3561% | 94.0282% | 76.6577% | 85.6537%
11 | Cn1cnc2c(F)c(Nc3ccc(Br)cc3Cl)c(C(=O)NOCCO)cc21 [SELUMETINIB] | 107.697% | 90.3962% | 52.8036% | 90.0191% | 41.0506% | 90.7653% | 35.0637% | 76.2393% | 54.0546% | 152.417% | 80.7355% | 77.3788%
12 | Cl.Cl.NC1(c2ccc(-c3nc4ccn5c(=O)[nH]nc5c4cc3-c3ccccc3)cc2)CCC1 | 52.26% | 91.614% | 79.8603% | 69.8373% | 42.2425% | 103.472% | 90.3868% | 88.3443% | 44.0229% | 145.22% | 34.39% | 114.515%
13 | Cc1nc(-c2cn3c(n2)-c2ccc(-c4cnn(C(C)(C)C(N)=O)c4)cc2OCC3)n(C(C)C)n1 [TASELISIB] | 42.3556% | 62.2904% | 29.0303% | 59.8749% | 25.1108% | 133.934% | 29.7364% | 65.8836% | 15.8608% | 146.008% | 9.086% | 84.7341%
14 | CC(=O)C1=C(C)N(c2cccc(C(F)(F)F)c2)C(=O)N[C@@H]1c1ccc(C#N)nc1 [BAY-678] | 128.432% | 162.784% | 110.704% | 89.9312% | 126.5% | 123.101% | 84.3173% | 104.156% | 140.099% | 133.591% | 110.356% | 85.3396%
15 | CCCCN(CCCC)C(=O)CN1C[C@@H](c2cc(OC)c3c(c2)OCO3)[C@H](C(=O)O)[C@H]1CC(C)(C)CCC [A-545] | 124.297% | 133.906% | 113.751% | 92.0951% | 105.072% | 96.9928% | 119.694% | 109.859% | 123.099% | 97.2502% | 106.602% | 112.439%
16 | O=C(Nc1cccnc1)c1cc(-c2ccnc(F)c2)ccc1OCc1ccccc1 | 87.3368% | 83.1264% | 73.6273% | 99.0368% | 118.198% | 103.257% | 132.36% | 106.667% | 125.655% | 104.766% | 84.3573% | 88.986%
17 | CCc1ccccc1C(=O)Nc1n[nH]c2c(C)c(F)c(C3C(C#N)=C(C)N(C)C(C)=C3C#N)cc12 [BAY-3827] | 80.578% | 109.489% | 83.7184% | 82.828% | 89.6646% | 118.565% | 81.9788% | 77.2526% | 74.4041% | 157.673% | 58.8443% | 110.691%
